These results are taken from patent US6284726A, “Inhibition of angiogenesis by peptide analogs of high molecular weight kininogen domain 5” (Temple University - Of The Commonwealth System of Higher …, priority 2000, dated 2001).

Bounds are passed on as bounds.

The test system of one assay is HUVEC cells. As to the kind of experiment: CyQUANT proliferation assay of bFGF-stimulated HUVEC. The format is cell-based, human. As to conditions: 10 ng/ml bFGF; for Proliferation % Inhibition: 48 hours. As to the method:
Cell proliferation was determined by using CyQUANT cell proliferation assay kit from Molecular Probes (catalog #C-7026).
HUVEC cells (50,000/well) in a 96 well microtiter plate were stimulated with 10 ng/ml bFGF in serum-free, M199 growth medium with or without HK peptide for 48 hours at 37° C. in a CO2 incubator. Cells were washed with serum-free medium and frozen at -40° C. Frozen cells were thawed and lysed with a lysis buffer containing the CyQUANT GR dye. Fluorescence was measured using a Cytofluor II Fluorescence Multi-well plate reader with excitation 485 nm and emission with 530 nm.
The percent inhibition of proliferation at a specific peptide concentration was determined for some peptides. For other peptides, an IC50 was calculated from a curve plotting inhibitor concentration versus percent inhibition over a inhibition range of ten to ninety percent inhibition.

The next assay deals with HUVECs. Briefly: Transwell migration of endothelial cells to vitronectin. The following applies: 0.27 μM; four hours at 37° C. It is filed as cell-based, human. The protocol: The lower side of 8 μm pore transwell inserts (Costar, Inc.) were coated with 2 μg/ml of vitronectin for one hour and blocked with 2% bovine serum albumin in phosphate buffered saline for one hour. The inserts were then placed into 24 well culture dishes containing 500 μl migration buffer in the lower chamber. Twenty-five thousand HUVECs in 50 μl of migration buffer were added to the upper chamber of duplicate inserts containing 50 μl of a solution of 50 μg/ml GST-SEQ ID NO. 10 peptide in migration buffer (Herpes buffered M199 medium containing 1% BSA, […], […] and 0.2 μM MnCl2) or migration buffer alone. Cells were allowed to migrate from the upper to the lower chamber for four hours at 37° C. Nonmigratory cells were removed from the upper surface by wiping the upper side with an absorbent tip. Cells which migrated to the lower side of the transwell insert were then fixed for 15 minutes with 3.7% paraformaldehyde in phosphate buffered saline and stained with a 2% crystal violet solution. After extensive water washing to remove excess crystal violet, the number of cells which had migrated were counted in three representative high power (200X) fields per inset.

Assay [1] relates to chorioallantoic membrane (CAM) of embryonated chicken eggs. As to the kind of experiment: In ovo chick chorioallantoic membrane (CAM) angiogenesis assay. The following applies: for inhibition of bFGF-stimulated angiogenesis (blood vessel branch points): bFGF-saturated filter disc on CAM, peptide 0-25 μg in 25 μl saline, 0.27 μM, applied 24 hours later. It is filed as in vivo. From the text: New vessels, quantified by blood vessel branching, occurred in response to bFGF, VEGF, or a combination of both. Accordingly, ten day old embryonated chicken eggs were candled to illuminate blood vessels under the shell. An area with a minimum of small blood vessel was identified. The chorioallantoic membrane (CAM) was dropped away from the egg shell in this area by grinding a small hole in the mineralized shell and applying pressure to the underlying inner shell membrane. This caused an air pocket to shift from the wide end of the egg to the identified area and forced a circular region of the CAM approximately 2 cm in diameter to drop away from the shell. A window was cut in the egg shell. A cortisone acetate pre-treated filter disc 5 mm in diameter that was saturated in 1 μg/mi bFGF, a combination of bFGF and VEGF, or saline and was placed on the CAM. The window in the shell was sealed with adhesive tape and the egg was incubated for four days. Peptide GST-SEQ ID NO:10 (0-25 μg in 25 μI saline; 0.27 μM) was applied to the saturated filter 24 hours later and was applied to the stimulated CAM. The CAM was then harvested on the fourth day of stimulation. Data were evaluated in terms of average number of blood vessel branch points per treatment group as well as percent of control using a video camera attached to a personal computer. Under the conditions of the assay, peptide GST-SEQ ID NO:10 inhibited bFGF-stimulated angiogenesis by 97% and bFGF/VEGF-stimulated angiogenesis by 94%. There was no inhibition of bFGF-stimulated angiogenesis by GST alone (<10% inhibition).

As to “GST-Glu(448)-Ser(626) [GST-SEQ ID NO: 12]”, the “Proliferation % Inhibition” value in the assay with HUVEC cells (peptide conc. 0.35 μM) is 65%.
As for “GST-His(441)-Ser(626) [GST-SEQ ID NO: 8]”, the “Proliferation % Inhibition” value in the assay on HUVEC cells (peptide conc. 0.39 μM) is given as 100%.
For the substance “GST-Lys(420)-Ser(513) [GST-SEQ ID NO: 10]”, the “inhibition of HUVEC migration to vitronectin” value in the assay on HUVECs amounted to 100%. Further, in assay [1] (bFGF plus GST fusion peptide, CAM), the “inhibition of bFGF-induced angiogenesis, as seen in FIG. 1D (in words)” value is “substantial inhibition”. In assay [1] (harvested on fourth day), the “inhibition of bFGF-stimulated angiogenesis (blood vessel branch points)” value is on record as 97%. Also, in assay [1] (filter disc with combination of bFGF and VEGF on CAM, peptide 0.27 μM applied 24 hours later, harvested on fourth day), the “inhibition of bFGF/VEGF-stimulated angiogenesis (blood vessel branch points)” value came to 94%. In the assay with HUVEC cells (serum-free M199, 48 hours, read-out: IC50 (inhibition of endothelial cell proliferation)), the IC50 was < 30 nM. In addition, the “Proliferation % Inhibition” value with HUVEC cells (peptide conc. 0.27 μM) stood at 100%.
Turning to “GST-Lys(420)-Asp(474) [GST-SEQ ID NO: 5]”, in the assay with HUVEC cells (peptide conc. 0.36 μM), the “Proliferation % Inhibition” value is 94%.
Consider “glutathione-S-transferase [GST, reference compound]”, for which the “inhibition of bFGF-stimulated angiogenesis (blood vessel branch points)” value in assay [1] (harvested on fourth day) is listed as < 10%.
